System: 282377-053-R-J1-PDC complex spheroid viability
Test: Anticancer human tumor 282377-053-R-J1-PDC patient-derived colon adenocarcinoma cell line growth inhibition [POLQ]
Details: for IC50: curve of first compound; for viability, T/C: stronger effect = lower value
How it was run: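 Patient-derived tumour cells were co-cultured with HUVEC and mesenchymal stem cells as multicellular spheroids at 37 °C. They were treated with POLQ inhibitors (novobiocin, ART-558, RP6685) alone or combined with other agents. Top concentrations were at or near clinical Cmax (otherwise 10 microM; SN-38 at 1 microM), decreasing in half-log steps.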

[1] = second compound 0.0316 µM, first compound 0.0316 µM
[2] = second compound 0.0316 µM, first compound 0.1 µM
[3] = second compound 0.0316 µM, first compound 0.316 µM
[4] = second compound 0.0316 µM, first compound 1 µM
[5] = second compound 0.0316 µM, first compound 3.16 µM
[6] = second compound 0.0316 µM, first compound 10 µM
[7] = second compound 0.1 µM, first compound 0.0316 µM
[8] = second compound 0.1 µM, first compound 0.1 µM
[9] = second compound 0.1 µM, first compound 0.316 µM
[10] = second compound 0.1 µM, first compound 1 µM
[11] = second compound 0.1 µM, first compound 3.16 µM
[12] = second compound 0.1 µM, first compound 10 µM
[13] = second compound 0.316 µM, first compound 0.0316 µM
[14] = second compound 0.316 µM, first compound 0.1 µM
[15] = second compound 0.316 µM, first compound 0.316 µM
[16] = second compound 0.316 µM, first compound 1 µM
[17] = second compound 0.316 µM, first compound 3.16 µM
[18] = second compound 0.316 µM, first compound 10 µM
[19] = second compound 1 µM, first compound 0.0316 µM
[20] = second compound 1 µM, first compound 0.1 µM
[21] = second compound 1 µM, first compound 0.316 µM
[22] = second compound 1 µM, first compound 1 µM
[23] = second compound 1 µM, first compound 3.16 µM
[24] = second compound 1 µM, first compound 10 µM
[25] = second compound 3.16 µM, first compound 0.0316 µM
[26] = second compound 3.16 µM, first compound 0.1 µM
[27] = second compound 3.16 µM, first compound 0.316 µM
[28] = second compound 3.16 µM, first compound 1 µM
[29] = second compound 3.16 µM, first compound 3.16 µM
[30] = second compound 3.16 µM, first compound 10 µM
[31] = second compound 10 µM, first compound 0.0316 µM
[32] = second compound 10 µM, first compound 0.1 µM
[33] = second compound 10 µM, first compound 0.316 µM
[34] = second compound 10 µM, first compound 1 µM
[35] = second compound 10 µM, first compound 3.16 µM
[36] = second compound 10 µM, first compound 10 µM
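Note: spheroids exposed to compounds for seven days.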
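Throughout, for viability, T/C: 100% = DMSO vehicle control viability.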

C=CC(=O)N1CCN(c2nc(=O)n(-c3c(C)ccnc3C(C)C)c3nc(-c4c(O)cccc4F)c(F)cc23)C(C)C1 (centres undefined) + Cc1cccc(N(C)C(=O)C2C(O)CCN2c2nc(C)cc(C(F)(F)F)c2C#N)c1
IC50 (second compound 0.0316 µM): > 10 µM | IC50 (second compound 0.1 µM): > 10 µM | IC50 (second compound 0.316 µM): > 10 µM | IC50 (second compound 1 µM): > 10 µM | IC50 (second compound 3.16 µM): > 10 µM | IC50 (second compound 10 µM): > 10 µM | viability, T/C [1]: 94.8% | viability, T/C [2]: 84.6% | viability, T/C [3]: 119% | viability, T/C [4]: 89.3% | viability, T/C [5]: 97.3% | viability, T/C [6]: 80.5% | viability, T/C [7]: 102% | viability, T/C [8]: 108% | viability, T/C [9]: 93.4% | viability, T/C [10]: 83.5% | viability, T/C [11]: 90.4% | viability, T/C [12]: 88.7% | viability, T/C [13]: 91.2% | viability, T/C [14]: 106% | viability, T/C [15]: 106% | viability, T/C [16]: 89.4% | viability, T/C [17]: 74.1% | viability, T/C [18]: 79.3% | viability, T/C [19]: 79.2% | viability, T/C [20]: 92.7% | viability, T/C [21]: 89% | viability, T/C [22]: 80.8% | viability, T/C [23]: 85.7% | viability, T/C [24]: 76.6% | viability, T/C [25]: 88.5% | viability, T/C [26]: 99% | viability, T/C [27]: 71.9% | viability, T/C [28]: 88.5% | viability, T/C [29]: 84% | viability, T/C [30]: 89.4% | viability, T/C [31]: 76.7% | viability, T/C [32]: 80.8% | viability, T/C [33]: 89.7% | viability, T/C [34]: 86.8% | viability, T/C [35]: 85.8% | viability, T/C [36]: 70.7%

CCc1cc2c(N3CCc4c(cc(Cn5ccnc5)cc4-c4cn(C)nc4C(F)(F)F)C3=O)cc(C)nc2c(OC)n1 + Cc1cccc(N(C)C(=O)C2C(O)CCN2c2nc(C)cc(C(F)(F)F)c2C#N)c1
IC50 (second compound 0.0316 µM): > 10 µM | IC50 (second compound 0.1 µM): > 10 µM | IC50 (second compound 0.316 µM): > 10 µM | IC50 (second compound 1 µM): > 10 µM | IC50 (second compound 3.16 µM): > 10 µM | IC50 (second compound 10 µM): > 10 µM | viability, T/C [1]: 104% | viability, T/C [2]: 99.8% | viability, T/C [3]: 89.7% | viability, T/C [4]: 103% | viability, T/C [5]: 108% | viability, T/C [6]: 134% | viability, T/C [7]: 85.9% | viability, T/C [8]: 102% | viability, T/C [9]: 91.2% | viability, T/C [10]: 91.2% | viability, T/C [11]: 112% | viability, T/C [12]: 117% | viability, T/C [13]: 90.3% | viability, T/C [14]: 99.8% | viability, T/C [15]: 111% | viability, T/C [16]: 110% | viability, T/C [17]: 104% | viability, T/C [18]: 108% | viability, T/C [19]: 111% | viability, T/C [20]: 102% | viability, T/C [21]: 114% | viability, T/C [22]: 89.9% | viability, T/C [23]: 108% | viability, T/C [24]: 107% | viability, T/C [25]: 110% | viability, T/C [26]: 99.5% | viability, T/C [27]: 101% | viability, T/C [28]: 93.8% | viability, T/C [29]: 122% | viability, T/C [30]: 115% | viability, T/C [31]: 96.8% | viability, T/C [32]: 98.3% | viability, T/C [33]: 97% | viability, T/C [34]: 96.8% | viability, T/C [35]: 104% | viability, T/C [36]: 126%
